Data as given in article PMC12749166, “Fragment-based drug design of a bacterial kinase inhibitor capable of increasing the antibiotic sensitivity of clinical isolates” (Communications Chemistry, 2025).

Legend:
S. aureus C0032 = assay: Bacterial growth kinetics over 24 h; format: cell-based; conditions: for Increase of latency: 500 µM 83
APH(3’)-Ib = target: T1, APH(3’)-Ib (Escherichia coli, UniProt P14509); assay: biochemical; design: species or system E. coli and K. pneumoniae
T1 construct: His-tag (inferred from HisTrap purification); made in house; host or cells: E. coli BL21
T1 sequence (P14509 whole entry): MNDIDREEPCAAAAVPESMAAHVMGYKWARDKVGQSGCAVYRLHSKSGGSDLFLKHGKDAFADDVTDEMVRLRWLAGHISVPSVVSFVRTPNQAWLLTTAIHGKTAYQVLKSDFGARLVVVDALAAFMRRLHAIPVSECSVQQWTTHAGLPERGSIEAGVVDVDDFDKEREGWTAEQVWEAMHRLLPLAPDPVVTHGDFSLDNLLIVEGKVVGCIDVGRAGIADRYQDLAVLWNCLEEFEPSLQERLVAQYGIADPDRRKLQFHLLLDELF

APH(3’)-IIb = target: T2, APH(3’)-IIb (Pseudomonas aeruginosa, UniProt Q9HWR2, M95L); assay: Isothermal Titration Calorimetry; format: binding, P. aeruginosa
T2 sequence (Q9HWR2 1-268 M95L): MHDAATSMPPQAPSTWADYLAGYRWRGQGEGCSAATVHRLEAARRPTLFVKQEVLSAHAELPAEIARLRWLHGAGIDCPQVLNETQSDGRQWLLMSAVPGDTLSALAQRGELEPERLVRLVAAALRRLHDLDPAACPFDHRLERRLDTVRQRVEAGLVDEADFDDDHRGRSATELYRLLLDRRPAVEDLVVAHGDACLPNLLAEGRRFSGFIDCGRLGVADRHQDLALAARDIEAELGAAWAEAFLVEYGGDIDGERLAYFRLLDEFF
Protocol: ITC experiments were performed on three different machines: a MicroCal VP-ITC (GE Healthcare), a MicroCal PEAQ-ITC (Malvern), or a MicroCal iTC200 (Malvern). The architecture and principles are similar for the three different systems. The experiments were carried out in Buffer HEPES at 25 °C. Titrations consisted of twenty injections of 1.5 µL inhibitors, every 120 seconds, into the measuring cell using the injection syringe rotating at 750 rpm. The data were analyzed using the MicroCal PEAQ-ITC software (v. 1.52, Malvern) using the single-site binding model to fit the raw data. The standard error of the Kd value was determined from measurements made on distinct samples (n indicated in the text).

APH(2”)-IVa = APH(2”)-IVa (Enterococcus casseliflavus, UniProt O68183); assay: biochemical
APH(2”)-IVa, sequence (O68183 1-301): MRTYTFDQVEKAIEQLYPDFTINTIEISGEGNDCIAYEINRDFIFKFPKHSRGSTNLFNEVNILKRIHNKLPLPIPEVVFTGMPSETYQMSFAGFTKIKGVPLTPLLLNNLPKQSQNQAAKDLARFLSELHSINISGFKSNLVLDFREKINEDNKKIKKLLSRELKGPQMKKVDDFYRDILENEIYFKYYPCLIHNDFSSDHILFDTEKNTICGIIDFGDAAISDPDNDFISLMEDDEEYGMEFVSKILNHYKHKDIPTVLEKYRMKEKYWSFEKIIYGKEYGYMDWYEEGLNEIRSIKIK

For `Clc1cnc2[nH]ccc2c1-c1ccn[nH]1` [Compound 83], the Increase of latency (S. aureus C0032; 1024 µg mL^−1 kanamycin A) was 14 h, the Increase of latency (S. aureus C0032; 2048 µg mL^−1 kanamycin A) was 18 h and the Growth (S. aureus C0032; 4096 µg mL^−1 kanamycin A, 250 and 500 µM 83, after 24 h) was “no growth was detected”. For the same compound, the “Effect on growth kinetics” value (S. aureus C0032; 256 and 512 µg mL^−1 kanamycin A, 500 µM 83, absence of imipenem) was “slowed growth kinetics”, the “Toxicity of 83 alone on bacteria” value (S. aureus C0032; up to 500 µM (109 µg mL^−1), no kanamycin A, 24 h) was “no toxicity” and the inhibition at 100 µM (APH(3’)-Ib) was 55%. For the same compound, the Kd (APH(3’)-IIb) was 270 ± 50 nM, the ΔH (APH(3’)-IIb; ITC) was -13.6 kcal/mol and the inhibition at 100 µM (APH(2”)-IVa; 100 µM of 83) was 95%. For the same compound, the Ki (APH(2”)-IVa; Ki (µM), inhibition constant, ATP-competitive, 0-2 mM MgATP, 100 µM kanamycin A, global fitting) was 0.39 ± 0.04 µM.
